{"source": "paper PMC8920630", "about": "(Evidence-based Complementary and Alternative Medicine : eCAM, 2022)", "key": {"[1]": {"assay": "in vitro", "conditions": "PAMPA"}, "[2]": {"test_system": "primary porcine brain endothelial cells (PBECs)", "conditions": "cited from earlier work"}, "[3]": {"assay": "PAMPA-BBB, prediction of CNS permeability", "conditions": "for Prediction of CNS penetration: class from experimental Pe, limits of Di et al., 2003"}, "[4]": {"design": "method as in PMID 27992940", "conditions": "cited from earlier work"}}, "note": "Like-named read-outs stand apart in the source and are kept apart here.", "data": [{"compound": "C[C@H]1[C@H](C)CC[C@]2(C(=O)O)CC[C@]3(C)C(=CC[C@@H]4[C@@]5(C)C[C@@H](O)[C@H](O)[C@@](C)(CO)[C@@H]5CC[C@]43C)[C@H]12", "note": "[Asiatic acid]", "values": [{"measurement": "Papp at 18 h", "setting": "[1]", "result": "0.3 ± 0.3", "unit": "×10⁻⁶ cm/s"}, {"measurement": "BBB permeability in in vitro BBB model", "setting": "[2]", "result": "highly BBB permeable"}, {"measurement": "Prediction of CNS penetration", "setting": "[3]", "result": "CNS− (CNS−, low BBB permeation predicted; Pe, 10–6 cm s^−1 < 2.0)"}]}, {"compound": "C[C@H]1[C@H](C)CC[C@]2(C(=O)O)CC[C@]3(C)C(=CC[C@@H]4[C@@]5(C)C[C@@H](O)[C@H](O)[C@@](C)(CO)[C@@H]5[C@H](O)C[C@]43C)[C@H]12", "note": "[Madecassic acid]", "values": [{"measurement": "Papp", "setting": "[1]", "result": "0.27 ± 0.3", "unit": "×10⁻⁶ cm/s"}, {"measurement": "Prediction of CNS penetration", "setting": "[3]", "result": "CNS− (CNS−, low BBB permeation predicted; Pe, 10–6 cm s^−1 < 2.0)"}]}, {"compound": "CCn1cc(C(=O)O)c(=O)c2cc(F)c(N3CCNCC3)nc21", "note": "[Enoxacin]", "values": [{"measurement": "Prediction of CNS penetration", "setting": "[3]", "result": "CNS− (CNS−, low BBB permeation predicted; Pe, 10–6 cm s^−1 < 2.0)"}]}, {"compound": "Madecassoside", "values": [{"measurement": "Apparent oral bioavailability", "setting": "[4]", "result": "less than 1%"}, {"measurement": "BBB permeability in in vitro BBB model", "setting": "[2]; primary porcine brain endothelial cells (PBECs)", "result": "highly BBB permeable"}, {"measurement": "PAMPA-BBB (Pe) Experimental permeability", "setting": "[3]; PBS: DMSO (95 : 5), 18 h, mean ± SEM", "result": "0.26 ± 0.7 10^−6 cm s^−1"}, {"measurement": "Prediction of CNS penetration", "setting": "[3]", "result": "CNS− (CNS−, low BBB permeation predicted; Pe, 10–6 cm s^−1 < 2.0)"}]}]}
